Test results reported in the NIST ThermoML archive (doi:10.1021/je800290k).
Several values for one entry are separate records, joined by “and”; a condition that tells them apart may be missing. Equal entries are not always repeated.

Conditions: Liquid, Ebulliometric method (Recirculating still)

NCCO [2-aminoethan-1-ol]
Conditions	vapor or sublimation pressure [kPa]
357.46 K	2.98
362.99 K	3.98
369.33 K	5.48
374.29 K	6.98
378.41 K	8.47
384.07 K	10.97
391.14 K	14.96
398.01 K	19.97
403.43 K	24.97
408.19 K	29.97
415.78 K	39.98
415.81 K	39.95
424.61 K	54.95
429.44 K	64.95
431.61 K	69.95
435.61 K	79.95

CNCCCN [N-methyl-1,3-diaminopropane]
Conditions	vapor or sublimation pressure [kPa]
326.81 K	3.46
331.62 K	4.47
337.36 K	5.97
343.91 K	7.97
353.78 K	12.48
365.76 K	20.47
372.77 K	27.96
383.53 K	39.97
397.99 K	64.98
404.7 K	79.98
412.5 K	101.27

CN(CCO)CCO [N-methyldiethanolamine]
Conditions	vapor or sublimation pressure [kPa]
409.69 K	2.48
413.43 K	2.98
416.72 K	3.48
421.96 K	4.48
426.65 K	5.48
430.48 K	6.48
435.5 K	7.98

O [water]
Conditions	vapor or sublimation pressure
311.63 K	6.78 kPa
313.24 K	7.38 kPa
314.99 K	8.11 kPa
323.11 K	12.28 kPa
323.14 K	12.28 kPa
323.15 K	12.27 kPa
325.47 K	13.78 kPa
325.61 K	13.8 kPa
332.76 K	19.84 kPa
332.85 K	19.84 kPa
333.13 K	19.58 kPa
333.17 K	19.88 kPa and 19.88 kPa
333.18 K	19.88 kPa and 19.88 kPa
333.19 K	19.87 kPa
340.41 K	27.6 kPa
340.44 K	27.58 kPa
340.47 K	27.6 kPa
348.8 K	39.83 kPa
348.84 K	39.83 kPa
349.91 K	41.4 kPa
349.94 K	41.39 kPa
349.97 K	41.4 kPa
353.14 K	47.18 kPa and 47.19 kPa
353.15 K	47.18 kPa
357.02 K	55.17 kPa
357.07 K	55.18 kPa
357.08 K	55.17 kPa
358.87 K	59.88 kPa
358.92 K	59.88 kPa
362.55 K	68.92 kPa
362.59 K	68.92 kPa
362.8 K	69 kPa
362.83 K	69 kPa and 68.98 kPa
362.89 K	69.83 kPa
362.93 K	69.83 kPa
367.48 K	82.79 kPa
367.49 K	82.79 kPa
367.67 K	82.79 kPa
367.69 K	82.79 kPa and 82.78 kPa
371.67 K	96.51 kPa
371.7 K	96.51 kPa
371.9 K	96.47 kPa
371.91 K	96.58 kPa
372.69 K	99.28 kPa
372.86 K	100.59 kPa
372.89 K	100.59 kPa
373.16 K	100.98 kPa and 100.98 kPa
